Measured values as given in ChEMBL document CHEMBL1944624, “Synthesis and antimalarial and antituberculosis activities of a series of natural and unnatural 4-methoxy-6-styryl-pyran-2-ones, dihydro analogues and photo-dimers” (Bioorg Med Chem, 2012).
In brackets after ≈: the same amount, converted by molar mass.

Columns and labels:
[1] = tested on: Trypanosoma brucei rhodesiense; assay: Antiprotozoal activity against Trypanosoma brucei rhodesiense STIB900 trypomastigotes after 72 hrs by alamar blue assay; type: functional, organism-based; conditions: STIB900, 72 h
Trypanosoma cruzi = assay: Antiprotozoal activity against Trypanosoma cruzi Tulahuen C2C4 amastigotes infected in rat L6 myoblasts after 96 hrs by CPRG/Nonidet-based spectrophotometry; type: functional, organism-based; conditions: Tulahuen C2C4, L6, 96 h
Leishmania donovani [2] = assay: Antiprotozoal activity against Leishmania donovani MHOM/ET/67/L82 axenic amastigotes after 72 hrs by alamar blue assay; type: functional, organism-based; conditions: MHOM/ET/67/L82, 72 h
Plasmodium falciparum [3] = assay: microbe, parasite or virus in culture; type: functional, organism-based; conditions: K1
Description: Antiprotozoal activity against erythrocytic stages chloroquine- and pyrimethamine-resistant Plasmodium falciparum K1 assessed as inhibition of [3H]hypoxanthine incorporation pre-incubated for 48 hrs prior [3H]hypoxanthine addition measured after 24 hrs by liquid scintillation counting

L6 = assay: Cytotoxicity against rat L6 myoblasts after 72 hrs by alamar blue assay; type: cell-based; conditions: L6, 72 h
[4] = Selectivity index, ratio of IC50 for erythrocytic stages chloroquine and pyrimethamine-resistant Plasmodium falciparum K1 to IC50 for rat L6 myoblasts; design: reference not given here
[5] = tested on: Mycobacterium tuberculosis; assay: Antituberculosis activity against Mycobacterium tuberculosis; type: functional
[6] = tested on: Trypanosoma brucei rhodesiense; assay: Antiprotozoal activity against Trypanosoma brucei rhodesiense; type: functional, organism-based
Plasmodium falciparum [7] = assay: Antiprotozoal activity against Plasmodium falciparum; type: functional, organism-based
Leishmania donovani [8] = assay: Antiprotozoal activity against Leishmania donovani; type: functional, organism-based
Plasmodium falciparum [9] = assay: Antiprotozoal activity against chloroquine resistant Plasmodium falciparum K1; type: functional, organism-based

COC1=CC(=O)O[C@]2(/C=C/c3ccc(OC)c(OC)c3)[C@H]1[C@H](c1ccc(OC)c(OC)c1)[C@H]2c1cc(OC)cc(=O)o1 (relative stereo)
IC50 [1]: 61 µM | IC50 (Trypanosoma cruzi): 130 µM | IC50 (Leishmania donovani [2]): 79 µM | IC50 (Plasmodium falciparum [3]): 1.5 µM | IC50 (L6): 120 µM | Ratio IC50 [4]: 80

COc1cc(CCc2cccc3ccccc23)oc(=O)c1
IC50 [1]: 85 µM | IC50 (Trypanosoma cruzi): 76 µM | IC50 (Leishmania donovani [2]): 55 µM | IC50 (Plasmodium falciparum [3]): > 18 µM | IC50 (L6): 110 µM

COc1cc(CCc2ccc(C(C)(C)C)cc2)oc(=O)c1
IC50 [1]: 78 µM | IC50 (Trypanosoma cruzi): 55 µM | IC50 (Leishmania donovani [2]): 24 µM | IC50 (Plasmodium falciparum [3]): 11 µM | IC50 (L6): 95 µM | Ratio IC50 [4]: 9

CCCCCCc1c(OC)cc(CCCCC)oc1=O
MIC [5]: 45 µM (≈ 12.6 µg/mL) | IC50 [6]: 14 µM | IC50 (Plasmodium falciparum [7]): 11 µM

COC1=CC(=O)O[C@]2(/C=C/c3ccccc3)[C@H]1[C@H](c1ccccc1)[C@H]2c1cc(OC)cc(=O)o1 (relative stereo)
IC50 [1]: 13 µM | IC50 (Trypanosoma cruzi): 28 µM | IC50 (Leishmania donovani [2]): 27 µM | IC50 (Plasmodium falciparum [3]): 7.1 µM | IC50 (L6): > 200 µM | Ratio IC50 [4]: >28

COc1cc(CCc2ccc3c(c2)OCO3)oc(=O)c1
IC50 [1]: > 330 µM | IC50 (Trypanosoma cruzi): > 330 µM | IC50 (Leishmania donovani [2]): > 330 µM | IC50 (Plasmodium falciparum [3]): > 18 µM | IC50 (L6): 150 µM

COc1cc(/C=C/c2cccc(Oc3ccc(C(C)(C)C)cc3)c2)oc(=O)c1
IC50 [1]: 34 µM | IC50 (Trypanosoma cruzi): 40 µM | IC50 (Leishmania donovani [2]): 25 µM | IC50 (Plasmodium falciparum [3]): 6.3 µM | IC50 (L6): 64 µM | Ratio IC50 [4]: 10

COc1cc(/C=C/c2cccc([N+](=O)[O-])c2)oc(=O)c1
IC50 [1]: 290 µM | IC50 (Trypanosoma cruzi): > 330 µM | IC50 (Leishmania donovani [2]): 270 µM | IC50 (Plasmodium falciparum [3]): 12 µM | IC50 (L6): 180 µM | Ratio IC50 [4]: 15

COc1cc(=O)oc([C@H]2[C@H](c3ccc(OC)c(OC)c3)[C@H](c3cc(OC)cc(=O)o3)[C@H]2c2ccc(OC)c(OC)c2)c1
IC50 [1]: 6.2 µM | IC50 (Trypanosoma cruzi): 38 µM | IC50 (Leishmania donovani [2]): 75 µM | IC50 (Plasmodium falciparum [3]): 3.1 µM | IC50 (L6): 22 µM | Ratio IC50 [4]: 7

COc1cc(CCc2ccc3ccccc3c2)oc(=O)c1
IC50 [1]: 72 µM | IC50 (Trypanosoma cruzi): 65 µM | IC50 (Leishmania donovani [2]): 42 µM | IC50 (Plasmodium falciparum [3]): 16 µM | IC50 (L6): 91 µM | Ratio IC50 [4]: 6

COc1cc(/C=C/c2ccc([N+](=O)[O-])cc2)oc(=O)c1
IC50 [1]: 38 µM | IC50 (Trypanosoma cruzi): 240 µM | IC50 (Leishmania donovani [2]): 49 µM | IC50 (Plasmodium falciparum [3]): 6 µM | IC50 (L6): 190 µM | Ratio IC50 [4]: 32

O=C(Cn1ccnc1[N+](=O)[O-])NCc1ccccc1 [BENZNIDAZOLE]
IC50 (Trypanosoma cruzi): 1.4 µM

COC1=CC(=O)O[C@]2(/C=C/c3cccc(Oc4ccc(C(C)(C)C)cc4)c3)[C@H]1[C@H](c1cccc(Oc3ccc(C(C)(C)C)cc3)c1)[C@H]2c1cc(OC)cc(=O)o1 (racemic)
IC50 [1]: > 120 µM | IC50 (Trypanosoma cruzi): > 120 µM | IC50 (Leishmania donovani [2]): 66 µM | IC50 (Plasmodium falciparum [3]): 4.4 µM | IC50 (L6): > 120 µM | Ratio IC50 [4]: >27

COc1cc(/C=C/c2ccc3ccccc3c2)oc(=O)c1
IC50 [1]: 2.7 µM | IC50 (Trypanosoma cruzi): > 320 µM | IC50 (Leishmania donovani [2]): > 320 µM | IC50 (Plasmodium falciparum [3]): 1.3 µM | IC50 (L6): 28 µM | Ratio IC50 [4]: 22

COc1cc(/C=C/c2ccc(OC)c(OC)c2)oc(=O)c1
IC50 [1]: 31 µM | IC50 (Trypanosoma cruzi): 170 µM | IC50 (Leishmania donovani [2]): 270 µM | IC50 (Plasmodium falciparum [3]): 3 µM | IC50 (L6): 160 µM | Ratio IC50 [4]: 54

COc1cc(CCc2ccc(OC)c(OC)c2)oc(=O)c1
IC50 [1]: 200 µM | IC50 (Trypanosoma cruzi): > 310 µM | IC50 (Leishmania donovani [2]): 270 µM | IC50 (Plasmodium falciparum [3]): > 17 µM | IC50 (L6): > 310 µM

COc1cc(/C=C/c2ccc(C(C)(C)C)cc2)oc(=O)c1
IC50 [1]: 44 µM | IC50 (Trypanosoma cruzi): 26 µM | IC50 (Leishmania donovani [2]): 20 µM | IC50 (Plasmodium falciparum [3]): 5.3 µM | IC50 (L6): 24 µM | Ratio IC50 [4]: 4

COc1cc(/C=C/c2ccc3c(c2)OCO3)oc(=O)c1
IC50 [1]: 47 µM | IC50 (Trypanosoma cruzi): 180 µM | IC50 (Leishmania donovani [2]): 230 µM | IC50 (Plasmodium falciparum [3]): 5.6 µM | IC50 (L6): 16 µM | Ratio IC50 [4]: 3

COc1cc(/C=C/c2ccccc2)oc(=O)c1 [DESMETHOXYYANGONIN]
IC50 [1]: 120 µM | IC50 (Trypanosoma cruzi): 64 µM | IC50 (Leishmania donovani [2]): 190 µM | IC50 (Plasmodium falciparum [3]): 13 µM | IC50 (L6): 160 µM | Ratio IC50 [4]: 12

COc1cc(CCc2ccc(CCc3cc(OC)cc(=O)o3)cc2)oc(=O)c1
IC50 [1]: 200 µM | IC50 (Trypanosoma cruzi): > 240 µM | IC50 (Leishmania donovani [2]): > 240 µM | IC50 (Plasmodium falciparum [3]): 3.6 µM | IC50 (L6): 50 µM | Ratio IC50 [4]: 14

COc1cc(CCc2cccc(Oc3ccc(C(C)(C)C)cc3)c2)oc(=O)c1
IC50 [1]: 65 µM | IC50 (Trypanosoma cruzi): 36 µM | IC50 (Leishmania donovani [2]): 15 µM | IC50 (Plasmodium falciparum [3]): 7.2 µM | IC50 (L6): 50 µM | Ratio IC50 [4]: 7

COC1=CC(=O)O[C@]2(/C=C/c3ccc(C(C)(C)C)cc3)[C@H]1[C@H](c1ccc(C(C)(C)C)cc1)[C@H]2c1cc(OC)cc(=O)o1 (racemic)
IC50 [1]: 21 µM | IC50 (Trypanosoma cruzi): 71 µM | IC50 (Leishmania donovani [2]): 4.5 µM | IC50 (Plasmodium falciparum [3]): 1.7 µM | IC50 (L6): 130 µM | Ratio IC50 [4]: 76

COc1cc([C@@H]2[C@@H](c3ccccc3)[C@@H](c3ccccc3)[C@@H]2c2cc(OC)cc(=O)o2)oc(=O)c1
IC50 [1]: 15 µM | IC50 (Trypanosoma cruzi): 32 µM | IC50 (Leishmania donovani [2]): 17 µM | IC50 (Plasmodium falciparum [3]): 3.8 µM | IC50 (L6): 51 µM | Ratio IC50 [4]: 13

COc1cc(CCc2ccccc2)oc(=O)c1 [DIHYDRO-5,6-DEHYDROKAWAIN]
IC50 (Trypanosoma cruzi): 240 µM | IC50 (Leishmania donovani [2]): 190 µM | IC50 (Plasmodium falciparum [3]): > 22 µM | IC50 (L6): 290 µM

CCCCCCCCCCCCCCCCOP(=O)([O-])OCC[N+](C)(C)C [MILTEFOSINE]
IC50 (Leishmania donovani [2]): 0.5 µM

COc1cc([C@@H]2c3cc4c(cc3[C@H](O)[C@H]3COC(=O)[C@H]23)OCO4)cc(OC)c1OC [PODOFILOX]
IC50 (L6): 0.01 µM

CCCCCCCC1CC(O)=C(CCCCCC)C(=O)O1 (centres undefined) [PSEUDOPYRONINE B]
MIC [5]: 2.7 µM (≈ 0.8 µg/mL) | IC50 [6]: 42 µM | IC50 (Leishmania donovani [8]): 4.8 µM | IC50 (Plasmodium falciparum [9]): 48 µM

COc1cc(/C=C/c2ccco2)oc(=O)c1
IC50 [1]: 76 µM | IC50 (Trypanosoma cruzi): > 410 µM | IC50 (Leishmania donovani [2]): 240 µM | IC50 (Plasmodium falciparum [3]): 17 µM | IC50 (L6): 140 µM | Ratio IC50 [4]: 8

COc1cc(=O)oc([C@H]2[C@H](c3ccc4ccccc4c3)[C@H](c3cc(OC)cc(=O)o3)[C@H]2c2ccc3ccccc3c2)c1
IC50 [1]: 4.9 µM | IC50 (Trypanosoma cruzi): 90 µM | IC50 (Leishmania donovani [2]): 10 µM | IC50 (Plasmodium falciparum [3]): 2.3 µM | IC50 (L6): 95 µM | Ratio IC50 [4]: 42

COc1cc(/C=C/c2ccc(/C=C/c3cc(OC)cc(=O)o3)cc2)oc(=O)c1
IC50 [1]: 119 µM | IC50 (Trypanosoma cruzi): > 240 µM | IC50 (Leishmania donovani [2]): > 240 µM | IC50 (Plasmodium falciparum [3]): 8.6 µM | IC50 (L6): > 240 µM | Ratio IC50 [4]: >28

COc1cc(/C=C/C=C/c2ccc(N(C)C)cc2)oc(=O)c1
IC50 [1]: 290 µM | IC50 (Trypanosoma cruzi): > 300 µM | IC50 (Leishmania donovani [2]): > 300 µM | IC50 (Plasmodium falciparum [3]): 7.2 µM | IC50 (L6): 26 µM | Ratio IC50 [4]: 4

COc1cc(/C=C/c2cccc(Oc3ccccc3)c2)oc(=O)c1
IC50 [1]: 8.8 µM | IC50 (Trypanosoma cruzi): 43 µM | IC50 (Leishmania donovani [2]): 30 µM | IC50 (Plasmodium falciparum [3]): 4.9 µM | IC50 (L6): 13 µM | Ratio IC50 [4]: 3

COc1cc(/C=C/C=C/c2ccccc2)oc(=O)c1
IC50 [1]: 150 µM | IC50 (Trypanosoma cruzi): > 350 µM | IC50 (Leishmania donovani [2]): 220 µM | IC50 (Plasmodium falciparum [3]): 6.7 µM | IC50 (L6): 190 µM | Ratio IC50 [4]: 29

COc1cc(/C=C/c2cccc3ccccc23)oc(=O)c1
IC50 [1]: 18 µM | IC50 (Trypanosoma cruzi): 34 µM | IC50 (Leishmania donovani [2]): 47 µM | IC50 (Plasmodium falciparum [3]): 4.6 µM | IC50 (L6): 110 µM | Ratio IC50 [4]: 24
